Results on 5 molecules are retold here after PMC6073332 (2018).

Each structure is given as a SMILES string.

Assay [1] relates to duplex III (= I + II) (DNA, duplex) CTCTCTTGTCTTCTC/GAGAAGACAAGAGAG
Nature of the assay: HPLC-ESI-MS (denaturing). The conditions noted are these: Na+ 100 mM (NaClO4); 50 mM TEAA pH 7, 310 K, 48 h; Ru/III 1.0 or 6.0; covalent.

Assay [2] has as its system single strand VI (-A7G8C9-) (DNA, single strand) CTCTCTAGCCTTCTC
Nature of the assay: HPLC-UV peak areas, two-step stoichiometric fit. The conditions noted are these: none listed (50 mM triethylammonium acetate buffer only); 50 mM TEAA pH 7, 310 K, 24 h; covalent; site 1 of 2 (G8).

The subject of assay [3] is single strand VII (-C7G8C9-) (DNA, single strand) CTCTCTCGCCTTCTC
Nature of the assay: HPLC-UV peak areas, two-step stoichiometric fit. The conditions noted are these: none listed (50 mM triethylammonium acetate buffer only); 50 mM TEAA pH 7, 310 K, 24 h; covalent; site 1 of 2 (G8).

Assay [4] deals with single strand I (-T7G8T9-) (DNA, single strand) CTCTCTTGTCTTCTC
In words: HPLC-UV peak areas, two-step stoichiometric fit. The conditions noted are these: none listed (50 mM triethylammonium acetate buffer only); 50 mM TEAA pH 7, 310 K, 24 h; covalent; site 1 of 2 (G8).

For assay [5], the system named is single strand IX (-A7G8A9-) (DNA, single strand) CTCTCTAGACTTCTC
In words: HPLC-UV peak areas, two-step stoichiometric fit. The following applies: none listed (50 mM triethylammonium acetate buffer only); 50 mM TEAA pH 7, 310 K, 24 h; covalent; site 1 of 2 (G8).

In assay [6] the test system is single strand IV (-T7G8A9-) (DNA, single strand) CTCTCTTGACTTCTC
In words: HPLC-UV peak areas, two-step stoichiometric fit. The following applies: none listed (50 mM triethylammonium acetate buffer only); 50 mM TEAA pH 7, 310 K, 24 h; covalent; site 1 of 2 (G8).

Assay [7] concerns single strand V (-C7G8A9-) (DNA, single strand) CTCTCTCGACTTCTC
In words: HPLC-UV peak areas, two-step stoichiometric fit. The conditions noted are these: none listed (50 mM triethylammonium acetate buffer only); 50 mM TEAA pH 7, 310 K, 24 h; covalent; site 1 of 2 (G8).

Assay [8] relates to single strand VIII (-A7G8T9-) (DNA, single strand) CTCTCTAGTCTTCTC
In words: HPLC-UV peak areas, two-step stoichiometric fit. The conditions noted are these: none listed (50 mM triethylammonium acetate buffer only); 50 mM TEAA pH 7, 310 K, 24 h; covalent; site 1 of 2 (G8).

Assay [9] deals with single strand II (complement of I) (DNA, single strand) GAGAAGACAAGAGAG
In words: HPLC-ESI-MS. The following applies: 50 mM TEAA pH 7, 310 K, 24 h; Ru/II 1.0 or 3.0; covalent.

Assay [10] deals with duplex III (= I + II) (DNA, duplex) CTCTCTTGTCTTCTC/GAGAAGACAAGAGAG
In words: CD. The conditions noted are these: Na+ 100 mM (NaClO4) in incubation stock, 50 mM TEAA pH 7, 310 K, 24 h, diluted to 5 μM duplex, covalent.

For the molecule `NCCN.[Cl-].[Ru+2].c1ccc(-c2ccccc2)cc1`, the binding result in assay [1] and in assay [9] was “yes” throughout. In addition, the K1 in assay [2] is 3.33 ± 0.37 × 10^4 M^−1; in assay [3], 4.75 ± 0.53 × 10^4 M^−1; in [4] it was 2.92 ± 0.46 × 10^4 M^−1; in assay [5], 3.61 ± 0.39 × 10^4 M^−1; in [6] it was 3.99 ± 0.31 × 10^4 M^−1; in assay [7], 2.81 ± 0.55 × 10^4 M^−1. For the same molecule, the K1 in [8] is 5.74 ± 0.44 × 10^4 M^−1.

For `N.N.[Cl-].[Cl-].[Pt+2]`, the binding entry in assay [10] (Pt/III 6.0) is on record as “yes”.

On to `Cc1ccc(C(C)C)cc1.NCCN.[Cl-].[Ru+2]`, for which the K1 in [4] is 3.94 ± 0.24 × 10^4 M^−1. In addition, the binding entry in assay [9] and in assay [10] (Ru/III up to 6.0) was “yes” each time.

Regarding `NCCN.[Cl-].[Ru+2].c1ccc2c(c1)CCC2`, the K1 in assay [4] is listed as 2.52 ± 0.13 × 10^4 M^−1. For the same molecule, the binding entry in [9] is listed as “yes”.

In the case of `NCCN.[Cl-].[Ru+2].c1ccccc1`, the binding result in assay [1] and in assay [9] was “yes” in each case. Also, the K1 in [4] is 0.79 ± 0.04 × 10^4 M^−1.
